According to US12016336B2 (priority 2020, dated 2024):
Structures can show the parent of a compound that is named as a salt. Where two headings read alike, the source gives them in different places.

What was measured:
[1] = room temperature, 90% H2O/D2O
[2] = assay type: physicochemical
[3] = assay type: physicochemical; remark: listed apart in the source
[4] = Solubility in water; assay type: physicochemical
[5] = system: corn; experiment: Growth of corn in pots exposed to dibutyldithiophosphate (Example 20); assay type: in vivo; conditions: 4 weeks
Protocol: Corn was planted in 6″ TEKU pots. The pots were packed finger tight with potting mix #4 from Beautiful Land Products. The corn seeds were planted approximately 1.5 inches deep. Fifty seeds of corn were planted for every loading of dibutyldithiophosphate ammonium salt. After the seeds were added to the soil the dibutyldithiophosphate ammonium salt was added as a fully dissolved aqueous solution. Tap water (500 mL) was added to a measured amount of the salt to yield desired amount in 10 mL After mixing well for 10 minutes, the aqueous solution was added to each plant via syringe (10 mL) immediately around and on the seed. After adding the salt, the plants were moved outside in full sunlight until harvest. The corn plants were watered daily.
The corn was harvested after 4 weeks. Plant height was taken by straightening the corn plant out by the leaves and measuring from the base of the shoot to the longest point on the leaf. After removing the roots, the weight of the shoot and leaves was measured using a balance.
Statistical analysis was performed using IBM SPSS Statistics 25. Non-parametric Kruskal-Wallis test was performed to determine significance. Data represented are mean±standard error with ** indicating α<0.05 and * indicating α<0.1.

[6] = system: soybeans; experiment: Field trial: harvest yield of soybeans (Example 27); assay type: in vivo; conditions: 2 kg per acre, side dressing, versus not exposed
Source text: All essential plant nurtients (N, P, K, and S) were applied in non-limiting amounts. Prior to planting soybeans, the fields were fertilized with 60 lb acre of P2O5, 80 lb per acre of K20, and 20 lb per acre of sulfur. The soybean seeds were a 2.8-3.2 relative maturity planted at 120,000 to 140,000 seeds per acre. All field management were designed to effectively control weed and insect pests to optimize soybean growth and yield. The soybeans were planted and either 0, 0.5, 1.0, or 2.0 kg per acre of dibutyldithiophosphate was applied as a side dressing to the soybean plants. The dibutyldithiophosphate was dissolved in water and applied. The harvest weight was determined for each plot and corrected for slight differences in moisture content.

[7] = system: people; conditions: exposure in the air; cited from earlier work
[8] = assay type: physicochemical; remark: listed apart in the source
[9] = system: radish, peas, and lettuce plants; conditions: Carter et al., cited from earlier work
[10] = water buffered at pH 6.7, FIG. 4

SMILES: CCCCOP(=S)(S)OCCCC [Example 1, Dibutyldithiophosphate Ammonium Salt]
- Percent Degradation ([1]; 30 days, 31P NMR): <3%
- Rate of first-step of hydrolysis (85° C.) ([2]; 85° C., 90% H2O/D2O): 0.00096 h⁻¹
- Time to complete hydrolysis ([2]; 85° C., 90% H2O/D2O, to phosphoric acid only): 180 days
- Hydrolysis slower than the compound of Example 2 ([2]; 85° C., versus Example 2): 3.5 ×
- Hydrolysis slower than the dithiophosphate of Example 3 ([2]; 85° C., versus Example 3): 7.4 ×
- Hydrolysis slower than the dithiophosphate of Example 4 ([2]; 85° C., versus Example 4): 1.4 ×
- Release of H2S (rank among the dithiophosphates) [3, 10]: lowest

SMILES: S=P(S)(Sc1ccccc1)Sc1ccccc1 [Example 13]
- Solubility in water of the potassium and triethylamine salts [4]: insoluble in water

SMILES: CCCCOP(=S)(S)OCCCC [dibutyldithiophosphate]
- Increase in weight of the corn plants ([5]; 1 mg added to the soil adjacent to the seed, versus plants grown without): 39%
- Weight of the corn plants (significance) ([5]; 1, 10, 50, and 75 mg loadings): statistically significant improvements
- Heights of the corn plants ([5]; all loadings): Little statistically significant difference
- Increase in harvest yield of soybeans [6]: 4.4%

SMILES: CC(C)[C@@H]1CC[C@@H](C)C[C@H]1OP(=S)([S-])O[C@@H]1C[C@H](C)CC[C@H]1C(C)C.[K+] [Example 5]
- Solubility in water at 5 mM ([4]; concentration of 5 mM): mostly insoluble in water
- Solubility in water of the potassium and triethylamine salts [4]: insoluble in water
- Release of H2S at 5 mM ([3]; pH 6.7): released H2S

SMILES: S=P1(S)OCCS1 (stereo not drawn) [Example 14]
- Release of H2S (rank among the dithiophosphates) ([3]; pH 6.7): highest

SMILES: CC1(C)[C@@H]2CC[C@]1(C)[C@H](OP(=S)(S)O[C@@H]1C[C@H]3CC[C@@]1(C)C3(C)C)C2 [Example 7]
- Solubility in water of the potassium and triethylamine salts [4]: insoluble in water

SMILES: S [Example H2S, hydrogen sulfide]
- Level immediately dangerous to life and health [7]: 100 ppm

SMILES: CC(C)(C)OP(=S)([S-])OC(C)(C)C.[Na+] [Example 8, Di(Tert-Butanol)Dithiophosphate Sodium Salt]
- Percent degraded at day 12 ([1]; day 12): 62%
- Percent degraded at day 20 ([1]; day 20): 88%
- ΔΔG^‡ ([8]; 25° C. versus 85° C.): 0.526 kcal/mol
- ΔH^‡ ([8]; rate constants measured from 25 to 85° C.): 27.84 kcal/mol
- Rate of hydrolysis slower at room temperature than at 85° C. ([2]; room temperature versus 85° C.): 2,600 ×
- Rate of first-step of hydrolysis ([2]; room temperature, 90% H2O/D2O): 0.0051 h⁻¹
- Release of H2S (rank among the dithiophosphates) [3, 10]: highest

SMILES: C1COCCN1.COc1ccc(P(=S)(S)N2CCOCC2)cc1 (stereo not drawn) [GYY-4137]
- Growth of radish, peas, and lettuce plants [9]: increased the growth
- Harvest yield of radishes ([9]; milligram loadings): doubled
